Measurements as given in US20120220548A1, “Compositions and methods for treatment of virus-associated cancer cells” (priority 2011, published 2012).

How the values were obtained:
BCBL-1 cells = conditions: 3 weeks
Experimental: Mice were injected with 2×10^7 BCBL-1 cells and were weighed as a function of time every week for 3 weeks, to assess tumor growth. […] The weight is shown on the ordinate and time in days on the abscissa.
Mice were injected with 2×10^7 BCBL-1 cells (a strain of PEL cells) and were weighed as a function of time every week for three weeks, to assess tumor growth. Weight was compared to control mice not receiving BCBL-1 cells.

[1] = test system: BCBL-1 primary effusion lymphoma (PEL) cells; experiment: rapamycin cell killing of BCBL-1 PEL cells in culture with or without oHA (relative cell viability); type: cell-based, human
Experimental: The cells used are the PEL strain known as body cavity-based lymphoma-1 (BCBL-l; diamonds and squares). The squares indicate data from cells to which oHA was added along with rapamycin.
Cell viability was assessed using both MTT and Trypan blue exclusion assays as described in Qin Z, et al. PLoS Pathog 2010; 6(1): e1000742. For MTT assays, a total of 5×10^3 PEL cells were incubated individual wells of a 96-well plate for 24 hours. Serial dilutions of paclitaxel, doxorubicin or oHAs were added and subsequently incubated in 1 mg/ml MTT solution (Sigma-Aldrich) at 37° C. for 3 hours. Thereafter, cells were incubated in 50% dimethylsulfoxide overnight and optical densities determined at 570 nm using a spectrophotometer (Thermo Labsystems, West Palm Beach, Fla., USA). For Trypan blue exclusion assays, cells were incubated with 0.4% Trypan blue (MP Biomedicals, Northbrook, Ill., USA) and observed under light microscopy. Relative cell viability was determined after assessment of at least 1000 cells per condition for each experiment using the following formula: (no. of live cells/no. of total cells for experimental conditions)/ (no. of live cells/no. of total cells for vehicle-treated control cells). […]

[2] = doxorubicin 0.2 mg/kg intraperitoneally

| Structure (SMILES) | effect on progress of lymphoma (weight gain) (BCBL-1 cells; doxorubicin 0.2 mg/kg i.p., oHA 0.5 mg/kg i.p.) | tumor-associated weight gain (BCBL-1 cells; [2]) | tumor-associated weight gain from baseline weight of 25-28g (BCBL-1 cells; [2]) | survival (relative cell viability) ([1]; 1 nM rapamycin, this agent alone) | IC50 ([1]; Homo sapiens, BCBL1, read-out: concentration of rapamycin giving cell death of about half the cells, rapamycin alone) |
| --- | --- | --- | --- | --- | --- |
| COc1cccc2c1C(=O)c1c(O)c3c(c(O)c1C2=O)C[C@@](O)(C(=O)CO)C[C@@H]3O[C@H]1C[C@H](N)[C@H](O)[C@H](C)O1 [doxorubicin] | only slightly reduced the increase in weight | 4 to 7 g | approximately 35% |  |  |
| CO[C@H]1C[C@@H]2CC[C@@H](C)[C@@](O)(O2)C(=O)C(=O)N2CCCC[C@H]2C(=O)O[C@H]([C@H](C)C[C@@H]2CC[C@@H](O)[C@H](OC)C2)CC(=O)[C@H](C)/C=C(\C)[C@@H](O)[C@@H](OC)C(=O)[C@H](C)C[C@H](C)/C=C/C=C/C=C/1C [rapamycin] |  |  |  | greater than 0.95 | 10 to 20 nM |
